Experimental data reported in patent US8461083B2, “Herbicidal compounds” (Syngenta Limited, priority 2008, dated 2013).

Assays:
Format in all cases: in vivo
[1] = tested on: Echinochloa crus-galli (ECHCG); assay: Pre-emergence herbicidal glasshouse test; conditions: pre-emergence (sprayed after one day cultivation), evaluated after 13 days, 100=total damage to plant, 0=no damage to plant; for PRE Application ECHCG, damage to plant: 1000 g/ha; for pest or weed control at 1000 g/ha: Echinochloa crus-galli, 312 h, read-out: PRE Application ECHCG, damage to plant
Summary of the method: (§1)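 Damage was rated visually 13 days after treatment on a 0–100 scale, 100 meaning total damage. Pot-grown plants received a 1000 g/ha spray in acetone/water (50:50) containing 0.5% Tween 20, either one day after sowing or after eight days of growth.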

[2] = tested on: Alopecurus myosuroides (ALOMY); assay: Pre-emergence herbicidal glasshouse test; conditions: pre-emergence (sprayed after one day cultivation), evaluated after 13 days, 100=total damage to plant, 0=no damage to plant; for PRE Application ALOMY, damage to plant: 1000 g/ha; for pest or weed control at 1000 g/ha: Alopecurus myosuroides, 312 h, read-out: PRE Application ALOMY, damage to plant
Summary of the method: (§2)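 Glasshouse pots at 24/16 °C day/night, 14 h photoperiod and 65% humidity were treated once at 1000 g/ha, using 0.5% Tween 20 in acetone/water 50:50, before (1 d) or after (8 d) emergence. Phytotoxicity was scored 0–100 at 13 days.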

Setaria faberi (SETFA) [3] = assay: Pre-emergence herbicidal glasshouse test; conditions: pre-emergence (sprayed after one day cultivation), evaluated after 13 days, 100=total damage to plant, 0=no damage to plant; for PRE Application SETFA, damage to plant: 1000 g/ha; for pest or weed control at 1000 g/ha: Setaria faberi, 312 h, read-out: PRE Application SETFA, damage to plant
Summary of the method: as §2

[4] = tested on: Amaranthus retoflexus (AMARE); assay: Pre-emergence herbicidal glasshouse test; conditions: pre-emergence (sprayed after one day cultivation), evaluated after 13 days, 100=total damage to plant, 0=no damage to plant; for PRE Application AMARE, damage to plant: 1000 g/ha; for pest or weed control at 1000 g/ha: Amaranthus retroflexus, 312 h, read-out: PRE Application AMARE, damage to plant
Summary of the method: as §2

Solanum nigrum (SOLNI) [5] = assay: Pre-emergence herbicidal glasshouse test; conditions: pre-emergence (sprayed after one day cultivation), evaluated after 13 days, 100=total damage to plant, 0=no damage to plant; for PRE Application SOLNI, damage to plant: 1000 g/ha; for pest or weed control at 1000 g/ha: Solanum nigrum, 312 h, read-out: PRE Application SOLNI, damage to plant
Summary of the method: as §2

[6] = tested on: Echinochloa crus-galli (ECHCG); assay: Post-emergence herbicidal glasshouse test; conditions: post-emergence (sprayed after 8 days cultivation), evaluated after 13 days, 100=total damage to plant, 0=no damage to plant; for POST Application ECHCG, damage to plant: 1000 g/ha; for pest or weed control at 1000 g/ha: Echinochloa crus-galli, 312 h, read-out: POST Application ECHCG, damage to plant
Summary of the method: as §1

[7] = tested on: Alopecurus myosuroides (ALOMY); assay: Post-emergence herbicidal glasshouse test; conditions: post-emergence (sprayed after 8 days cultivation), evaluated after 13 days, 100=total damage to plant, 0=no damage to plant; for POST Application ALOMY, damage to plant: 1000 g/ha; for pest or weed control at 1000 g/ha: Alopecurus myosuroides, 312 h, read-out: POST Application ALOMY, damage to plant
Summary of the method: as §2

Setaria faberi (SETFA) [8] = assay: Post-emergence herbicidal glasshouse test; conditions: post-emergence (sprayed after 8 days cultivation), evaluated after 13 days, 100=total damage to plant, 0=no damage to plant; for POST Application SETFA, damage to plant: 1000 g/ha; for pest or weed control at 1000 g/ha: Setaria faberi, 312 h, read-out: POST Application SETFA, damage to plant
Summary of the method: as §2

[9] = tested on: Amaranthus retoflexus (AMARE); assay: Post-emergence herbicidal glasshouse test; conditions: post-emergence (sprayed after 8 days cultivation), evaluated after 13 days, 100=total damage to plant, 0=no damage to plant; for POST Application AMARE, damage to plant: 1000 g/ha; for pest or weed control at 1000 g/ha: Amaranthus retroflexus, 312 h, read-out: POST Application AMARE, damage to plant
Summary of the method: as §2

Solanum nigrum (SOLNI) [10] = assay: Post-emergence herbicidal glasshouse test; conditions: post-emergence (sprayed after 8 days cultivation), evaluated after 13 days, 100=total damage to plant, 0=no damage to plant; for POST Application SOLNI, damage to plant: 1000 g/ha; for pest or weed control at 1000 g/ha: Solanum nigrum, 312 h, read-out: POST Application SOLNI, damage to plant
Summary of the method: as §2

Compound: CCCOCCn1c(=O)ccc2cc(C(=O)C3C(=O)CCCC3=O)c(C(F)(F)F)nc21 [Compound 2.17]
- PRE Application ECHCG, damage to plant [1]: 80
- PRE Application ALOMY, damage to plant [2]: 10
- PRE Application SETFA, damage to plant (Setaria faberi (SETFA) [3]): 50
- PRE Application AMARE, damage to plant [4]: 40
- PRE Application SOLNI, damage to plant (Solanum nigrum (SOLNI) [5]): 80
- POST Application ECHCG, damage to plant [6]: 80
- POST Application ALOMY, damage to plant [7]: 30
- POST Application SETFA, damage to plant (Setaria faberi (SETFA) [8]): 90
- POST Application AMARE, damage to plant [9]: 90
- POST Application SOLNI, damage to plant (Solanum nigrum (SOLNI) [10]): 90

Compound: CC(C)(C)C(=O)Cn1c(=O)ccc2cc(C(=O)C3C(=O)CCCC3=O)c(C(F)(F)F)nc21 [Compound 2.7, 2-{8-(3,3-dimethyl-2-oxo-butyl)-7-oxo-7,8-dihydro-2-trifluoromethyl-[1,8]-naphthyridine-3-carbony}-cyclohexane-1,3-dione]
- PRE Application ECHCG, damage to plant [1]: 80
- PRE Application ALOMY, damage to plant [2]: 30
- PRE Application SETFA, damage to plant (Setaria faberi (SETFA) [3]): 40
- PRE Application AMARE, damage to plant [4]: 60
- PRE Application SOLNI, damage to plant (Solanum nigrum (SOLNI) [5]): 100
- POST Application ECHCG, damage to plant [6]: 70
- POST Application ALOMY, damage to plant [7]: 40
- POST Application SETFA, damage to plant (Setaria faberi (SETFA) [8]): 70
- POST Application AMARE, damage to plant [9]: 70
- POST Application SOLNI, damage to plant (Solanum nigrum (SOLNI) [10]): 100

Compound: Cc1nc2nc(C(F)(F)OCC(F)(F)F)c(C(=O)C3C(=O)CCCC3=O)cc2cc1F [Compound 1.91, 2-[6-fluoro-7-methyl-2[(2,2,2-trifluoroethoxy)difluoromethyl]-[1,8]-naphthyridine-3-carbony]-cyclohexane-1,3-dione]
- PRE Application ECHCG, damage to plant [1]: 100
- PRE Application ALOMY, damage to plant [2]: 10
- PRE Application SETFA, damage to plant (Setaria faberi (SETFA) [3]): 90
- PRE Application AMARE, damage to plant [4]: 100
- PRE Application SOLNI, damage to plant (Solanum nigrum (SOLNI) [5]): 100
- POST Application ECHCG, damage to plant [6]: 80
- POST Application ALOMY, damage to plant [7]: 40
- POST Application SETFA, damage to plant (Setaria faberi (SETFA) [8]): 80
- POST Application AMARE, damage to plant [9]: 90
- POST Application SOLNI, damage to plant (Solanum nigrum (SOLNI) [10]): 90

Compound: CC(F)c1ccc2cc(C(=O)C3C(=O)CCCC3=O)c(C(F)(F)F)nc2n1 (stereo not shown) [Compound 1.35, 2-[7-(1-fluoroethyl)-2-trifluoromethyl-[1,8]-naphthyridine-3-carbony]-cyclohexane-1,3-dione]
- PRE Application ECHCG, damage to plant [1]: 100
- PRE Application ALOMY, damage to plant [2]: 70
- PRE Application SETFA, damage to plant (Setaria faberi (SETFA) [3]): 100
- PRE Application AMARE, damage to plant [4]: 100
- PRE Application SOLNI, damage to plant (Solanum nigrum (SOLNI) [5]): 100
- POST Application ECHCG, damage to plant [6]: 90
- POST Application ALOMY, damage to plant [7]: 90
- POST Application SETFA, damage to plant (Setaria faberi (SETFA) [8]): 90
- POST Application AMARE, damage to plant [9]: 100
- POST Application SOLNI, damage to plant (Solanum nigrum (SOLNI) [10]): 90

Compound: Cc1ccc2cc(C(=O)C3C(=O)CCCC3=O)c(C(F)F)nc2n1 [Compound 1.85, 2-(2-difluoromethyl-7-methyl-[1,8]-naphthyridine-3-carbonyl)-cyclohexane-1,3-dione]
- pest or weed control at 1000 g/ha [1]: 100%
- pest or weed control at 1000 g/ha [2]: 10%
- pest or weed control at 1000 g/ha (Setaria faberi (SETFA) [3]): 80%
- pest or weed control at 1000 g/ha [4]: 90%
- pest or weed control at 1000 g/ha (Solanum nigrum (SOLNI) [5]): 100%
- pest or weed control at 1000 g/ha [6]: 80%
- pest or weed control at 1000 g/ha [7]: 50%
- pest or weed control at 1000 g/ha (Setaria faberi (SETFA) [8]): 80%
- pest or weed control at 1000 g/ha [9]: 80%
- pest or weed control at 1000 g/ha (Solanum nigrum (SOLNI) [10]): 80%

Compound: Cc1ccc2cc(C(=O)C3C(=O)CCCC3=O)c(C(F)(F)Cl)nc2n1 [Compound 1.89, 2-[2-chlorodifluoromethyl-7-methyl [1,8]-naphthyridine-3-carbony]-cyclohexane-1,3-dione]
- PRE Application ECHCG, damage to plant [1]: 100
- PRE Application ALOMY, damage to plant [2]: 40
- PRE Application SETFA, damage to plant (Setaria faberi (SETFA) [3]): 100
- PRE Application AMARE, damage to plant [4]: 100
- PRE Application SOLNI, damage to plant (Solanum nigrum (SOLNI) [5]): 100
- POST Application ECHCG, damage to plant [6]: 90
- POST Application ALOMY, damage to plant [7]: 70
- POST Application SETFA, damage to plant (Setaria faberi (SETFA) [8]): 80
- POST Application AMARE, damage to plant [9]: 100
- POST Application SOLNI, damage to plant (Solanum nigrum (SOLNI) [10]): 90

Compound: CCCCC(C)Oc1ccc2cc(C(=O)C3C(=O)CCCC3=O)c(C(F)(F)F)nc2n1 (stereo not shown) [Compound 1.56]
- PRE Application ECHCG, damage to plant [1]: 80
- PRE Application ALOMY, damage to plant [2]: 20
- PRE Application SETFA, damage to plant (Setaria faberi (SETFA) [3]): 90
- PRE Application AMARE, damage to plant [4]: 40
- PRE Application SOLNI, damage to plant (Solanum nigrum (SOLNI) [5]): 100
- POST Application ECHCG, damage to plant [6]: 70
- POST Application ALOMY, damage to plant [7]: 30
- POST Application SETFA, damage to plant (Setaria faberi (SETFA) [8]): 80
- POST Application AMARE, damage to plant [9]: 70
- POST Application SOLNI, damage to plant (Solanum nigrum (SOLNI) [10]): 80

Compound: CCOc1nc2nc(C(F)(F)F)c(C(=O)C3C(=O)C4CCC(C4)C3=O)cc2cc1F (stereo not shown) [Compound 3.4]
- pest or weed control at 1000 g/ha [1]: 100%
- pest or weed control at 1000 g/ha [2]: 70%
- pest or weed control at 1000 g/ha (Setaria faberi (SETFA) [3]): 100%
- pest or weed control at 1000 g/ha [4]: 100%
- pest or weed control at 1000 g/ha (Solanum nigrum (SOLNI) [5]): 100%
- pest or weed control at 1000 g/ha [6]: 80%
- pest or weed control at 1000 g/ha [7]: 70%
- pest or weed control at 1000 g/ha (Setaria faberi (SETFA) [8]): 90%
- pest or weed control at 1000 g/ha [9]: 70%
- pest or weed control at 1000 g/ha (Solanum nigrum (SOLNI) [10]): 90%

Compound: COCCNc1nc2nc(C(F)(F)F)c(C(=O)C3C(=O)CCCC3=O)cc2cc1F [Compound 1.83, 2-[6-fluoro-7-(2-methoxyethylamino)-2-trifluoromethyl-[1,8]-naphthyridine-3-carbony]-cyclohexane-1,3-dione]
- PRE Application ECHCG, damage to plant [1]: 100
- PRE Application ALOMY, damage to plant [2]: 60
- PRE Application SETFA, damage to plant (Setaria faberi (SETFA) [3]): 100
- PRE Application AMARE, damage to plant [4]: 100
- PRE Application SOLNI, damage to plant (Solanum nigrum (SOLNI) [5]): 100
- POST Application ECHCG, damage to plant [6]: 80
- POST Application ALOMY, damage to plant [7]: 80
- POST Application SETFA, damage to plant (Setaria faberi (SETFA) [8]): 80
- POST Application AMARE, damage to plant [9]: 80
- POST Application SOLNI, damage to plant (Solanum nigrum (SOLNI) [10]): 80

Compound: CCN(C)c1nc2nc(C(F)(F)F)c(C(=O)C3C(=O)CCCC3=O)cc2cc1F [Compound 1.81, 2-[6-fluoro-7-(N-methylethylamino)-2-trifluoromethyl-[1,8]-naphthyridine-3-carbony]-cyclohexane-1,3-dione]
- PRE Application ECHCG, damage to plant [1]: 100
- PRE Application ALOMY, damage to plant [2]: 70
- PRE Application SETFA, damage to plant (Setaria faberi (SETFA) [3]): 100
- PRE Application AMARE, damage to plant [4]: 100
- PRE Application SOLNI, damage to plant (Solanum nigrum (SOLNI) [5]): 100
- POST Application ECHCG, damage to plant [6]: 90
- POST Application ALOMY, damage to plant [7]: 70
- POST Application SETFA, damage to plant (Setaria faberi (SETFA) [8]): 80
- POST Application AMARE, damage to plant [9]: 90
- POST Application SOLNI, damage to plant (Solanum nigrum (SOLNI) [10]): 80
